We go through twelve compounds from patent US12528814B2, “Bifunctional degraders of interleukin-1 receptor-associated kinases and therapeutic use thereof” (NURIX THERAPEUTICS, INC., priority 2020, dated 2026).

pIC50: −log10 of the molar value. Read-outs that look alike come from different tables or passages of the source.

Test [1] concerns the target T1, IRAK4 (Homo sapiens (Human), UniProt Q9NWZ3). Put plainly: IRAK4 Degradation HiBiT Assay. To be noted: HiBiT-tagged Jurkat cells, 4 hrs; for Dmax: Jurkat; for DC50: read-out: Cellular IRAK4 HiBiT: DC50.
Target sequence in this assay (Q9NWZ3 whole entry): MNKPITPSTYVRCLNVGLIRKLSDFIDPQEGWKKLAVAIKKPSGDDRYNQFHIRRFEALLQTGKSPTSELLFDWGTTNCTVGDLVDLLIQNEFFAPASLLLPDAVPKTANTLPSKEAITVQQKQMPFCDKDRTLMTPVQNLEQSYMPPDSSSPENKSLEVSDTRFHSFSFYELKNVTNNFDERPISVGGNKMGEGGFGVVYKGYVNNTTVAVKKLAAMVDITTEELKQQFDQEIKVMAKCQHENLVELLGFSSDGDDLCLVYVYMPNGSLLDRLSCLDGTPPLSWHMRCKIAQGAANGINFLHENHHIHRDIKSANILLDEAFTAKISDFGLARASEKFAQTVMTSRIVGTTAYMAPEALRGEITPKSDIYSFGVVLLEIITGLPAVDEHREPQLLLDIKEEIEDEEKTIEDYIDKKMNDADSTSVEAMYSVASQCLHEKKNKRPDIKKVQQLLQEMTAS
The target of test [2] is T1, IRAK4. Put plainly: IRAK4 Biochemical HTRF Kinase Assay. To be noted: read-out: IRAK4 HTRF biochemical: IC50. In a few lines: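 HTRF KinEASE STK S1 format measuring IRAK4 phosphorylation of biotinylated peptide; reaction solution of 5 μM STK-S1, 10 mM ATP, 10 mM MgCl2 added (stock, to 10 μl final), 90 min at ambient temperature, detection 60 min. IC50 from sixteen-point duplicate curves by non-linear regression.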
Target sequence in this assay (Q9NWZ3 whole entry, species assumed): as the sequence (Q9NWZ3 whole entry) above
A general note: In TR-FRET formats the signal depends on donor and acceptor labels being close together.

Where [3] appears, read: read-out: Cellular IRAK4 HiBiT: Dmax, Table 5, multiple runs.
The mark [4] stands for this setting: read-out: Cellular IRAK4 HiBiT: Dmax, Table 4.

As a reminder, the Dmax is the greatest extent of degradation seen. Broadly, the DC50 is the concentration giving 50% degradation. Broadly, the pIC50 is the IC50 on a negative log10 scale, so that one unit is a factor of ten.

Regarding `CNc1cc(-c2ccc3cc(C#N)cnn23)ncc1-c1nnc([C@H]2CC[C@H](N(C)C(=O)C3CCN(c4ccc5c(c4)C(=O)N(C4CCC(=O)NC4=O)C5=O)CC3)CC2)s1` (some centres unmarked) [Example 169, N-((1r,4r)-4-(5-(6-(3-cyanopyrrolo[1,2-b]pyridazin-7-yl)-4-(methylamino)pyridin-3-yl)-1,3,4-thiadiazol-2-yl)cyclohexyl)-1-(2-(2,6-dioxopiperidin-3-yl)-1,3-dioxoisoindolin-5-yl)-N-methylpiperidine-4-carboxamide], on IRAK4 [1] (setting [3]), the Dmax was determined as 104%. The DC50 at IRAK4 [1] (Table 5, multiple runs) worked out at 32 nM. For the same compound, the pIC50 on IRAK4 [2] (Table 5, multiple runs) is 9.10.
The like results for `CNc1cc(-c2ccc3cc(C#N)cnn23)ncc1-c1nnc(C23CCC(NC(=O)CCCCCC(=O)N[C@H](C(=O)N4C[C@H](O)C[C@H]4C(=O)N[C@@H](C)c4ccc(-c5scnc5C)cc4)C(C)(C)C)(CC2)CC3)s1` [Example 131, N1-(4-(5-(6-(3-cyanopyrrolo[1,2-b]pyridazin-7-yl)-4-(methylamino)pyridin-3-yl)-1,3,4-thiadiazol-2-yl)bicyclo[2.2.2]octan-1-yl)-N7-((S)-1-((2S,4R)-4-hydroxy-2-(((S)-1-(4-(4-methylthiazol-5-yl)phenyl)ethyl)carbamoyl)pyrrolidin-1-yl)-3,3-dimethyl-1-oxobutan-2-yl)heptanediamide] were, in that order, 109%, 124 nM and 8.68.
For the compound `CC(C)Nc1cc(-c2ccc3cc(C#N)cnn23)ncc1-c1nnc(N2CCN(Cc3ccc4c(c3)C(=O)N(C3CCC(=O)NC3=O)C4=O)CC2)s1` (centres unmarked) [Example 20, 7-(5-(5-(4-((2-(2,6-dioxopiperidin-3-yl)-1,3-dioxoisoindolin-5-yl)methyl)piperazin-1-yl)-1,3,4-thiadiazol-2-yl)-4-(isopropylamino)pyridin-2-yl)pyrrolo[1,2-b]pyridazine-3-carbonitrile], the Dmax on IRAK4 [1] (setting [4]) and on IRAK4 [1] (setting [3]) was 29% each time. Moreover, the DC50 is 654 nM at IRAK4 [1] (Table 4) and 660 nM at IRAK4 [1] (Table 5, multiple runs). The pIC50 at IRAK4 [2] (Table 4) was 8.70; on IRAK4 [2] (Table 5, multiple runs) it was 8.70.
As for `N#Cc1cnn2c(-c3cc(NC4CCOCC4)c(-c4nnc(C56CCC(NC(=O)CCOCCOCCNc7cccc8c7C(=O)N(C7CCC(=O)NC7=O)C8=O)(CC5)CC6)s4)cn3)ccc2c1` (centres unmarked) [Example 1, N-(4-(5-(6-(3-cyanopyrrolo[1,2-b]pyridazin-7-yl)-4-((tetrahydro-2H-pyran-4-yl)amino)pyridin-3-yl)-1,3,4-thiadiazol-2-yl)bicyclo[2.2.2]octan-1-yl)-3-(2-(2-((2-(2,6-dioxopiperidin-3-yl)-1,3-dioxoisoindolin-4-yl)amino)ethoxy)ethoxy)propanamide], the Dmax on IRAK4 [1] (setting [4]) was 65%; at IRAK4 [1] (setting [3]), 60%. In addition, the DC50 came out at 23.8 nM on IRAK4 [1] (Table 4) and 22.9 nM at IRAK4 [1] (Table 5, multiple runs). In addition, the pIC50 on IRAK4 [2] (Table 4) is 8.74; at IRAK4 [2] (Table 5, multiple runs) it was 8.70.
Regarding `CNc1cc(-c2ccc3cc(C#N)cnn23)ncc1-c1nnc([C@H]2CC[C@H](NC(=O)CCCOc3cc(-c4scnc4C)ccc3CNC(=O)[C@@H]3C[C@@H](O)CN3C(=O)[C@@H](NC(=O)C3(F)CC3)C(C)(C)C)CC2)s1` [Example 119, (2S,4R)—N-(2-(4-(((1r,4S)-4-(5-(6-(3-cyanopyrrolo[1,2-b]pyridazin-7-yl)-4-(methylamino)pyridin-3-yl)-1,3,4-thiadiazol-2-yl)cyclohexyl)amino)-4-oxobutoxy)-4-(4-methylthiazol-5-yl)benzyl)-1-((S)-2-(1-fluorocyclopropane-1-carboxamido)-3,3-dimethylbutanoyl)-4-hydroxypyrrolidine-2-carboxamide], the Dmax at IRAK4 [1] (setting [3]) was 117%. For the same compound, the DC50 at IRAK4 [1] (Table 5, multiple runs) was found to be 116 nM. At IRAK4 [2] (Table 5, multiple runs), the pIC50 was 8.66.
For the compound `CNc1cc(-c2ccc3cc(C#N)cnn23)ncc1-c1nnc([C@H]2CC[C@H](NC(=O)CCCCCC(=O)N[C@H](C(=O)N3C[C@H](O)C[C@H]3C(=O)N[C@@H](C)c3ccc(-c4scnc4C)cc3)C(C)(C)C)CC2)s1` [Example 62, N1-((1r,4S)-4-(5-(6-(3-cyanopyrrolo[1,2-b]pyridazin-7-yl)-4-(methylamino)pyridin-3-yl)-1,3,4-thiadiazol-2-yl)cyclohexyl)-N7—((S)-1-((2S,4R)-4-hydroxy-2-(((S)-1-(4-(4-methylthiazol-5-yl)phenyl)ethyl)carbamoyl)pyrrolidin-1-yl)-3,3-dimethyl-1-oxobutan-2-yl)heptanediamide], the values for the Dmax at IRAK4 [1] (setting [4]) and at IRAK4 [1] (setting [3]) were 103% and 111%, respectively. The DC50 at IRAK4 [1] (Table 4) was determined as 74.5 nM; on IRAK4 [1] (Table 5, multiple runs) it was 58.2 nM. Moreover, the pIC50 is 8.82 on IRAK4 [2] (Table 4) and 8.82 at IRAK4 [2] (Table 5, multiple runs).
On to `CC(C)Nc1cc(-c2ccc3cc(C#N)cnn23)ncc1-c1nnc(N2CCN(CC3CCN(c4ccc(C(=O)NC5CCC(=O)NC5=O)nc4)CC3)CC2)s1` (centres unmarked) [Example 33, 5-(4-((4-(5-(6-(3-cyanopyrrolo[1,2-b]pyridazin-7-yl)-4-(isopropylamino)pyridin-3-yl)-1,3,4-thiadiazol-2-yl)piperazin-1-yl)methyl)piperidin-1-yl)-N-(2,6-dioxopiperidin-3-yl)picolinamide], for which the Dmax at IRAK4 [1] (setting [4]) stood at 14%. For the same compound, the DC50 was > 10000 nM at IRAK4 [1] (Table 4) and > 9980 nM at IRAK4 [1] (Table 5, multiple runs). The pIC50 on IRAK4 [2] (Table 4) was 8.68; at IRAK4 [2] (Table 5, multiple runs) it was 8.68.
With `Cc1ncsc1-c1ccc([C@H](C)NC(=O)[C@@H]2C[C@@H](O)CN2C(=O)[C@@H](NC(=O)CCCCCCCC(=O)N2CCN(c3nnc(-c4cnc(-c5ccc6cc(C#N)cnn56)cc4NC(C)C)s3)CC2)C(C)(C)C)cc1` [Example 36, (2S,4R)-1-((S)-2-(9-(4-(5-(6-(3-cyanopyrrolo[1,2-b]pyridazin-7-yl)-4-(isopropylamino)pyridin-3-yl)-1,3,4-thiadiazol-2-yl)piperazin-1-yl)-9-oxononanamido)-3,3-dimethylbutanoyl)-4-hydroxy-N—((S)-1-(4-(4-methylthiazol-5-yl)phenyl)ethyl)pyrrolidine-2-carboxamide], the values for the Dmax on IRAK4 [1] (setting [4]) and on IRAK4 [1] (setting [3]) were 84% and 85%, respectively. The DC50 at IRAK4 [1] (Table 4) amounted to 315 nM; at IRAK4 [1] (Table 5, multiple runs) it was 287 nM. Moreover, the pIC50 at IRAK4 [2] (Table 4) was 7.87; at IRAK4 [2] (Table 5, multiple runs), 7.87.
With `CC(C)Nc1cc(-c2ccc3cc(C#N)cnn23)ncc1-c1nnc(N2CCN(C(=O)CCN3CCN(c4ccc5c(c4)C(=O)N(C4CCC(=O)NC4=O)C5=O)CC3)CC2)s1` (centres unmarked) [Example 14, 7-(5-(5-(4-(3-(4-(2-(2,6-dioxopiperidin-3-yl)-1,3-dioxoisoindolin-5-yl)piperazin-1-yl)propanoyl)piperazin-1-yl)-1,3,4-thiadiazol-2-yl)-4-(isopropylamino)pyridin-2-yl)pyrrolo[1,2-b]pyridazine-3-carbonitrile], the results for the Dmax on IRAK4 [1] (setting [4]) and at IRAK4 [1] (setting [3]) were 99% and 97%, respectively. The DC50 came out at 42.7 nM at IRAK4 [1] (Table 4) and 37.2 nM on IRAK4 [1] (Table 5, multiple runs). Moreover, the pIC50 at IRAK4 [2] (Table 4) is 9.10; on IRAK4 [2] (Table 5, multiple runs), 9.10.
As for `CNc1cc(-c2ccc3cc(C#N)cnn23)ncc1-c1nnc(N2CCC(C(=O)N3CCN(Cc4ccc5c(c4)C(=O)N(C4CCC(=O)NC4=O)C5=O)CC3)CC2)s1` (centres unmarked) [Example 157, 7-(5-(5-(4-(4-((2-(2,6-dioxopiperidin-3-yl)-1,3-dioxoisoindolin-5-yl)methyl)piperazine-1-carbonyl)piperidin-1-yl)-1,3,4-thiadiazol-2-yl)-4-(methylamino)pyridin-2-yl)pyrrolo[1,2-b]pyridazine-3-carbonitrile], the Dmax on IRAK4 [1] (setting [3]) was 104%. The DC50 at IRAK4 [1] (Table 5, multiple runs) was determined as 17.6 nM. Besides, the pIC50 on IRAK4 [2] (Table 5, multiple runs) was 9.00.
Consider `CNc1cc(-c2ccc3cc(C#N)cnn23)ncc1-c1nnc(C23CCC(NC(=O)C[C@H](NC(=O)[C@@H]4C[C@@H](O)CN4C(=O)[C@@H](NC(=O)C4(F)CC4)C(C)(C)C)c4ccc(-c5scnc5C)cc4)(CC2)CC3)s1` [Example 140, (2S,4R)—N—((S)-3-((4-(5-(6-(3-cyanopyrrolo[1,2-b]pyridazin-7-yl)-4-(methylamino)pyridin-3-yl)-1,3,4-thiadiazol-2-yl)bicyclo[2.2.2]octan-1-yl)amino)-1-(4-(4-methylthiazol-5-yl)phenyl)-3-oxopropyl)-1-((S)-2-(1-fluorocyclopropane-1-carboxamido)-3,3-dimethylbutanoyl)-4-hydroxypyrrolidine-2-carboxamide], for which the Dmax on IRAK4 [1] (setting [3]) worked out at 111%. Also, the DC50 on IRAK4 [1] (Table 5, multiple runs) amounted to 88.9 nM. Also, the pIC50 on IRAK4 [2] (Table 5, multiple runs) is 8.64.
Turning to `CNc1cc(-c2ccc3cc(C#N)cnn23)ncc1-c1nnc([C@H]2CC[C@H](NC(=O)CCCC(=O)N[C@H](C(=O)N3C[C@H](O)C[C@H]3C(=O)NCc3ccc(-c4scnc4C)cc3)C(C)(C)C)CC2)s1` [Example 59, N1-((1r,4S)-4-(5-(6-(3-cyanopyrrolo[1,2-b]pyridazin-7-yl)-4-(methylamino)pyridin-3-yl)-1,3,4-thiadiazol-2-yl)cyclohexyl)-N5-((S)-1-((2S,4R)-4-hydroxy-2-((4-(4-methylthiazol-5-yl)benzyl)carbamoyl)pyrrolidin-1-yl)-3,3-dimethyl-1-oxobutan-2-yl)glutaramide], the figures for the Dmax on IRAK4 [1] (setting [4]) and at IRAK4 [1] (setting [3]) were 89% and 101%, respectively. Moreover, the DC50 was determined as 163 nM on IRAK4 [1] (Table 4) and 160 nM at IRAK4 [1] (Table 5, multiple runs). For the same compound, the pIC50 at IRAK4 [2] (Table 4) was 9.03; on IRAK4 [2] (Table 5, multiple runs), 9.05.
